Test results reported in patent publication US10307413B2, “Tetrahydro- and dihydro-isoquinoline PRMT5 inhibitors and uses thereof” (Epizyme, Inc., priority 2013, dated 2019).

Legend:
[1] = test system: Z-138 cell line; test: Z-138 Proliferation Assay (Cell Titer Glo, 5 days); format: cell-based; conditions: Homo sapiens, 120 h; Z-138 cells, 5 days; read-out: Proliferation EC50
Method in brief: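 Viability via CellTiter-Glo luminescence (ATP) after 5-day incubation at 37 °C, 5% CO2. Compounds tested in triplicate, nine 3-fold steps, highest final concentration 20 μM in 0.2% DMSO; 50% inhibitory concentration by 4-parameter fit of normalized curves.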

[2] = test system: symmetric di-methyl arginine in Z-138 cells; test: Z-138 Methylation Assay (In Cell Western for symmetric di-methyl arginine and DNA content); format: cell-based; conditions: Homo sapiens, read-out: ICW EC50
Method in brief: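 In-cell western: symmetric di-methyl arginine signal ratioed to DRAQ5 DNA content after 96 h compound exposure of Z-138 cells seeded at 50,000 cells/mL.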

[3] = biological target: PRMT5/MEP50 (Homo sapiens (Human), UniProt O14744); test: PRMT5 Biochemical Assay (PRMT5/MEP50 enzyme assay on peptide substrate, 3H-SAM Flashplate)
Description: S-adenosylmethionine (SAM), S-adenosylhomocysteine (SAH), bicine, KCl, Tween20, dimethylsulfoxide (DMSO), bovine skin gelatin (BSG), and Tris(2-carboxyethyl)phosphine hydrochloride solution (TCEP) were purchased from Sigma-Aldrich at the highest level of purity possible. ^3H-SAM was purchase from American Radiolabeled Chemicals with a specific activity of 80 Ci/mmol. 384-well streptavidin Flashplates were purchased from PerkinElmer.
Peptide representative of human histone H4 residues 1-15 was synthesized with a C-terminal linker-affinity tag motif and a C-terminal amide cap by 21st Century Biochemicals.
The amplified genes were sublconed into pENTR/D/TEV (Life Technologies) and subsequently transferred by Gateway™ attL×attR recombination to pDEST8 baculovirus expression vector (Life Technologies).
Protein over-expression was accomplished by infecting exponentially growing Spodoptera frugiperda (SF9) cell culture at 1.2×10^6 cell/ml with a 5000 fold dilution of BIIC stock. Infections were carried out at 27° C. for 72 hours, harvested by centrifugation, and stored at −80° C. for purification.
Flag-PRMT5/6His-MeP50 was eluted with 300 mM Imidazole in the same buffer.
General Procedure for PRMT5/MEP50 Enzyme Assays on Peptide Substrates.
The assays were all performed in a buffer consisting of 20 mM Bicine (pH=7.6), 1 mM TCEP, 0.005% BSG, and 0.002% Tween20, prepared on the day of use. […] DMSO (1 ul) was added to Columns 11, 12, 23, 24, rows A-H for the maximum signal control and 1 ul of SAH, a known product and inhibitor of PRMT5/MEP50, was added to columns 11, 12, 23, 24, rows I-P for the minimum signal control. A cocktail (40 ul) containing the PRMT5/MEP50 enzyme and the peptide was added by Multidrop Combi (Thermo-Fisher). The compounds were allowed to incubate with PRMT5/MEP50 for 30 min at 25 degrees Celsius, then a cocktail (10 ul) containing ^3H-SAM was added to initiate the reaction (final volume=51 ul). […] The assays were stopped by the addition of non-radioactive SAM (10 ul) to a final concentration of 600 uM, which dilutes the ^3H-SAM to a level where its incorporation into the peptide substrate is no longer detectable. 50 ul of the reaction in the 384-well polypropylene plate was then transferred to a 384-well Flashplate and the biotinylated peptides were allowed to bind to the streptavidin surface for at least 1 hour before being washed three times with 0.1% Tween20 in a Biotek ELx405 plate washer. The plates were then read in a PerkinElmer TopCount plate reader to measure the quantity of ^3H-labeled peptide bound to the Flashplate surface, measured as disintegrations per minute (dpm) or alternatively, referred to as counts per minute (cpm).
[formula] [formula] Where dpm=disintegrations per minute, cmpd=signal in assay well, and min and max are the respective minimum and maximum signal controls.
[formula] [formula] Where top and bottom are the normally allowed to float, but may be fixed at 100 or 0 respectively in a 3-parameter fit. The Hill Coefficient normally allowed to float but may also be fixed at 1 in a 3-parameter fit. Y is the % inhibition and X is the compound concentration.

Chain of PRMT5/MEP50 (O14744 other isoform, or with tags, fused parts or gaps): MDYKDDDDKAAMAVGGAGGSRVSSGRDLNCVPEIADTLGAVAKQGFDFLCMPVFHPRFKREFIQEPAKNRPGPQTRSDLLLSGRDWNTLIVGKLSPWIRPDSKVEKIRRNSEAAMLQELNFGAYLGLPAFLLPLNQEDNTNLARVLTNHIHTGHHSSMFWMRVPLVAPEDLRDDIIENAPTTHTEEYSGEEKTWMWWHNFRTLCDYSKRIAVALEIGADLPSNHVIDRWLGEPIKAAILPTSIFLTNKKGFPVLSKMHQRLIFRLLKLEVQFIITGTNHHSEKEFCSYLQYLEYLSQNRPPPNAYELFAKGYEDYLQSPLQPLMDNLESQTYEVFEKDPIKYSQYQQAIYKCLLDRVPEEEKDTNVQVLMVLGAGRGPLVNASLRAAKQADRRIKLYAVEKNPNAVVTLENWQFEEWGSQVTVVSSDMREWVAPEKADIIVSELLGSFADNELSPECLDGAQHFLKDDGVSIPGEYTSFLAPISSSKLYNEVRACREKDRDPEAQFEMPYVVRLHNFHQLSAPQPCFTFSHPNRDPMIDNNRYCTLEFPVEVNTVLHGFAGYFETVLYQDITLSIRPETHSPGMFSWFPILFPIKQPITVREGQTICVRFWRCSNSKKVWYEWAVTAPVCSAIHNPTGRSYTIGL
Chain of PRMT5/MEP50 (Q9BQA1 other isoform, or with tags, fused parts or gaps partner): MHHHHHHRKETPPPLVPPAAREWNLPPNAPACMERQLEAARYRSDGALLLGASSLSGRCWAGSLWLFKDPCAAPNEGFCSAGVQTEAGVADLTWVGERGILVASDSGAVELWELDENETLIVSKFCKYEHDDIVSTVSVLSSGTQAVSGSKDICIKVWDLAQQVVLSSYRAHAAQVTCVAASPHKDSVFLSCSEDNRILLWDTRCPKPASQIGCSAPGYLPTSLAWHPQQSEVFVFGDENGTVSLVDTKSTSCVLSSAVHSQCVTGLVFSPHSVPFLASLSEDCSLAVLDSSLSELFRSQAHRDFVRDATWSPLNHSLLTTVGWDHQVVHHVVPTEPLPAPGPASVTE

| SMILES | EC50 [1] [nM] | EC50 [2] [nM] | IC50 [3] [nM] |
| --- | --- | --- | --- |
| CN(C)CCCNc1cc(C(=O)NC[C@H](O)CN2CCc3ccccc3C2)ncn1 [Compound 354] | 1000 to 10000 | < 100 | < 100 |
| O=C(NC[C@H](O)CN1CCc2ccccc2C1)c1cc(NC2CCC2)ncn1 [Compound 355] | < 100 | < 100 | < 100 |
| Cc1cnc(NC2CN(CC(F)(F)F)C2)cc1C(=O)NC[C@H](O)CN1CCc2ccccc2C1 [Compound 356] | > 20000 | > 1000 | 101 to 1000 |
| CN(C[C@H](O)CN1CCc2ccccc2C1)C(=O)c1ccnc(NC2CCOCC2)c1 [Compound 357] | 1000 to 10000 | < 100 | 101 to 1000 |
| CN(C[C@H](O)CN1CCc2ccccc2C1)C(=O)c1ccnc(N(C)C2CCOCC2)c1 [Compound 358] | > 20000 | 101 to 1000 | 1000 to 10000 |
| CN(CCNCC(F)(F)F)c1cc(C(=O)NC[C@H](O)CN2CCc3ccccc3C2)ccn1 [Compound 359] | 1000 to 10000 | 101 to 1000 | < 100 |
| NCCOc1ccc2cc(C(=O)NC[C@H](O)CN3CCc4ccccc4C3)ccc2c1 [Compound 360] | 1000 to 10000 | < 100 | 101 to 1000 |
| CNCCOc1ccc2cc(C(=O)NC[C@H](O)CN3CCc4ccccc4C3)ccc2c1 [Compound 361] | 1000 to 10000 | < 100 | 101 to 1000 |
| O=C(NC[C@H](O)CN1CCc2ccccc2C1)c1ccc(OCCCN2CCCCC2)cc1 [Compound 362] | 101 to 1000 | < 100 | 101 to 1000 |
| O=C(NC[C@H](O)CN1CCc2ccccc2C1)c1ccc(OCCCN2CCOCC2)cc1 [Compound 363] | 1000 to 10000 | < 100 | < 100 |
| CN(C[C@H](O)CN1CCc2ccccc2C1)C(=O)c1cc(NC2COC2)ncn1 [Compound 364] | 1000 to 10000 | 101 to 1000 | 101 to 1000 |
| O=C(NC[C@H](O)CN1CCc2ccccc2C1)c1cc(N[C@@H]2CCOC2)ncn1 [Compound 365] | 101 to 1000 | < 100 | < 100 |
| O=C(NC[C@H](O)CN1CCc2ccccc2C1)c1cncc(NC2COC2)n1 [Compound 366] | > 20000 | 101 to 1000 | 101 to 1000 |
| O=C(NC[C@H](O)CN1CCc2ccccc2C1)c1ccc2cc(OCCNCCO)ccc2c1 [Compound 368] | 1000 to 10000 | < 100 | < 100 |
| COCCNCCOc1ccc2cc(C(=O)NC[C@H](O)CN3CCc4ccccc4C3)ccc2c1 [Compound 369] | 1000 to 10000 | < 100 | < 100 |
| CN(C)CCOc1ccc2cc(C(=O)NC[C@H](O)CN3CCc4ccccc4C3)ccc2c1 [Compound 370] | 1000 to 10000 | < 100 | < 100 |
| O=C(NC[C@H](O)CN1CCc2ccccc2C1)c1ccc(OCCN2CCCCC2)cc1 [Compound 371] | 1000 to 10000 | < 100 | < 100 |
| O=C(NC[C@H](O)CN1CCc2ccccc2C1)c1ccc(OCCCN2CCCC2)cc1 [Compound 372] | 101 to 1000 | < 100 | < 100 |
| O=C(NC[C@H](O)CN1CCc2ccccc2C1)c1ccc(OCCCN2CCC2)cc1 [Compound 373] | 1000 to 10000 | < 100 | < 100 |
| CC(C)NCCCOc1ccc(C(=O)NC[C@H](O)CN2CCc3ccccc3C2)cc1 [Compound 374] | 1000 to 10000 | < 100 | < 100 |
| O=C(NC[C@H](O)CN1CCc2ccccc2C1)c1cc(NC2CCC2)nc(N2CCCCC2)c1 [Compound 375] | 101 to 1000 | < 100 | < 100 |
| CN(C)[C@H]1C[C@H](Nc2cc(C(=O)NC[C@H](O)CN3CCc4ccccc4C3)ncn2)C1 [Compound 376] | 1000 to 10000 | < 100 | < 100 |

| SMILES | EC50 [1] [nM] | EC50 [2] [nM] | IC50 [3] [nM] |
| --- | --- | --- | --- |
| CN(C)[C@H]1C[C@@H](Nc2cc(C(=O)NC[C@H](O)CN3CCc4ccccc4C3)ncn2)C1 [Compound 377] | 1000 to 10000 | 101 to 1000 | < 100 |
| O=C(NC[C@H](O)CN1CCc2ccccc2C1)c1ccnc(NC2COC2)c1 [Compound 378] | > 20000 | > 1000 | < 100 |
| Cc1cnc(NC2CN(S(C)(=O)=O)C2)cc1C(=O)NC[C@H](O)CN1CCc2ccccc2C1 [Compound 379] | 1000 to 10000 | < 100 | < 100 |
| CC(=O)N1CC(Nc2cc(C(=O)NC[C@H](O)CN3CCc4ccccc4C3)c(C)cn2)C1 [Compound 380] | 101 to 1000 | < 100 | < 100 |
| O=C(NC[C@H](O)CN1CCc2ccccc2C1)c1ccnc(Nc2cc[nH]n2)c1 [Compound 381] | 1000 to 10000 | < 100 | < 100 |
| O=C(NC[C@H](O)CN1CCc2ccccc2C1)c1ccnc(Nc2ccccn2)c1 [Compound 382] | 101 to 1000 | < 100 | < 100 |
| O=C(NC[C@H](O)CN1CCc2ccccc2C1)c1ccc(OCCN2CCCC2)cc1 [Compound 383] | 1000 to 10000 | < 100 | < 100 |
| CN(C)CCOc1ccc(C(=O)NC[C@H](O)CN2CCc3ccccc3C2)cc1 [Compound 384] | 1000 to 10000 | < 100 | < 100 |
| CCN(C)CCOc1ccc(C(=O)NC[C@H](O)CN2CCc3ccccc3C2)cc1 [Compound 385] | 1000 to 10000 | < 100 | < 100 |
| CNCCOc1ccc(C(=O)NC[C@H](O)CN2CCc3ccccc3C2)cc1 [Compound 386] | 1000 to 10000 | < 100 | < 100 |
| O=C(NC[C@H](O)CN1CCc2ccccc2C1)c1ccc(OCCN2CCOCC2)cc1 [Compound 387] | 101 to 1000 | < 100 | < 100 |
| O=C(NC[C@H](O)CN1CCc2ccccc2C1)c1ccc(OCCN2CCC2)cc1 [Compound 388] | 1000 to 10000 | < 100 | < 100 |
| CC(C)N(C)CCOc1ccc(C(=O)NC[C@H](O)CN2CCc3ccccc3C2)cc1 [Compound 389] | 1000 to 10000 | < 100 | < 100 |
| CC(C)NCCOc1ccc(C(=O)NC[C@H](O)CN2CCc3ccccc3C2)cc1 [Compound 390] | 1000 to 10000 | < 100 | < 100 |
| CCNCCOc1ccc(C(=O)NC[C@H](O)CN2CCc3ccccc3C2)cc1 [Compound 391] | 1000 to 10000 | < 100 | < 100 |
| CNCCCOc1ccc(C(=O)NC[C@H](O)CN2CCc3ccccc3C2)cc1 [Compound 392] | 1000 to 10000 | < 100 | < 100 |
| O=C(NC[C@H](O)CN1CCc2ccccc2C1)c1cc(NC2CCC2)nc(N2CCNCC2)c1 [Compound 393] | < 100 | < 100 | < 100 |
| CN1CCN(c2nc(NC3COC3)cc(C(=O)NC[C@H](O)CN3CCc4ccccc4C3)n2)CC1 [Compound 394] | < 100 | < 100 | < 100 |
| O=C(NC[C@H](O)CN1CCc2ccccc2C1)c1cc(NC2COC2)nc(N2CCOCC2)n1 [Compound 395] | < 100 | < 100 | < 100 |
| CCNCCCOc1ccc(C(=O)NC[C@H](O)CN2CCc3ccccc3C2)cc1 [Compound 396] | 1000 to 10000 | < 100 | < 100 |
| CC(C)N1CCN(c2cc(C(=O)NC[C@H](O)CN3CCc4ccccc4C3)cc(NC3CCC3)n2)CC1 [Compound 397] | < 100 | < 100 | < 100 |
